From PMC4029172 (eLife, 2014) come the findings set out here.

Experiment [1] deals with E. coli D21f2tolC Rif-, Stl-, CBR703-, Myx- and Lpm-resistant mutants. Description: Cross-resistance levels of Rif-, Stl-, CBR703-, Myx- and Lpm-resistant mutants. The experiment is classed as cell-based, Escherichia coli. The conditions noted are these: wild-type reference of Figure 4C.
For experiment [2], the system named is E. coli D21f2tolC Sal-resistant mutants. Description: Cross-resistance levels of Sal-resistant mutants. It is filed as cell-based, Escherichia coli. The conditions noted are these: wild-type reference of Figure 4B.
In experiment [3] the test system is E. coli D21f2tolC. Briefly: Resistance rates (fluctuation assays). The conditions noted are these: each agent at 2 × MIC.
Experiment [4] deals with T1, E. coli RNAP holoenzyme (Escherichia coli, UniProt P0A8T7+P0A8V2). The experiment is classed as biochemical.
The subject of experiment [5] is Bacillus anthracis Vollum 1B. Description: microbe, parasite or virus in culture. The experiment is classed as cell-based. The conditions noted are these: VOLLUM1B.
Experiment [6] concerns the target Staphylococcus aureus RNAP (Staphylococcus aureus, UniProt Q5HID2+Q5HID3). Briefly: biochemical.
The target of a further experiment is Escherichia coli RNAP (Escherichia coli, UniProt P0A8T7+P0A8V2). Description: biochemical.
The subject of experiment [7] is Neisseria gonorrhoeae ATCC 19424. Briefly: microbe, parasite or virus in culture. The conditions noted are these: ATCC19424. It is filed as cell-based.
Experiment [8] has as its system E. coli D21f2tolC spontaneous Sal-resistant mutants. Description: Resistance levels of spontaneous Sal-resistant mutants. The experiment is classed as cell-based, Escherichia coli. The conditions noted are these: for resistance level, all mutants: all 21 spontaneous Sal-resistant substitutions.
For another experiment, the system named is Yersinia pestis CO92. Briefly: microbe, parasite or virus in culture. It is filed as cell-based.
A further experiment has as its system Burkholderia mallei CHN7. Briefly: microbe, parasite or virus in culture. The experiment is classed as cell-based.
Experiment [9] has as its system Pseudomonas aeruginosa ATCC 10145. Briefly: microbe, parasite or virus in culture. It is filed as cell-based. The conditions noted are these: ATCC10145.
In experiment [10] the test system is E. coli D21f2tolC plasmid-borne induced Sal-resistant mutants.
Experiment [11] concerns Haemophilus influenzae ATCC 49247. Briefly: microbe, parasite or virus in culture. The conditions noted are these: ATCC49247. The experiment is classed as cell-based.
The test system of experiment [12] is Enterobacter cloacae ATCC 13047. Briefly: microbe, parasite or virus in culture. The experiment is classed as cell-based. The conditions noted are these: ATCC13047.
Experiment [13] concerns Moraxella catarrhalis ATCC 25238. Description: microbe, parasite or virus in culture. The experiment is classed as cell-based. The note with it: ATCC25238.
Experiment [14] has as its target T1, E. coli RNAP holoenzyme. The experiment is classed as biochemical. This is another data set of the same source.
The target of experiment [15] is T1, E. coli RNAP holoenzyme. Description: biochemical.
Experiment [16] deals with E. coli D21f2tolC. Briefly: Frequency of spontaneous Sal-resistant mutants. The experiment is classed as cell-based, Escherichia coli. The conditions noted are these: E. coli D21f2tolC plated on agar containing Sal; listed as Sal.
Experiment [17] deals with T1, E. coli RNAP holoenzyme. It is filed as biochemical. This is another data set of the same source.
For experiment [18], the system named is wild-type or ΔTL E. coli RNAP core enzyme. It is filed as biochemical, Escherichia coli.
Another experiment deals with E. coli RNAP core enzyme. It is filed as biochemical, Escherichia coli.
Experiment [19] concerns the target T1, E. coli RNAP holoenzyme. The experiment is classed as biochemical. This is another data set of the same source.
Experiment [20] has as its system E. coli D21f2tolC. Briefly: Macromolecular synthesis in bacterial cells in culture. It is filed as cell-based, Escherichia coli. The conditions noted are these: 2 x MIC; 0-30 min. Here is the method:
Macromolecular synthesis assays were performed essentially as in [Cotsonas King and Wu, 2009]. E. coli D21f2tolC ([Fralick and Burns-Keliher, 1994]) was cultured in 10 ml LB broth ([Sambrook and Russell, 2001]) at 37°C with shaking until OD600 = 0.4–0.8, and cultures were diluted with LB broth to OD600 = 0.167. Aliquots (90 µl) were dispensed into wells of a 96-well plate; were supplemented with 7 µl of pre-warmed 4 µCi/ml [^14C]-thymidine, 10 µCi/ml [^14C]-uracil, or 30 µCi/ml [^14C]-amino acid mix (PerkinElmer, Waltham, MA); were incubated 10 min at 37°C with shaking; were supplemented with 3 µl 3.3 µg/ml SalA in methanol (final concentration = 2 × MIC), 3 µl 13 µg/ml Rif in methanol (final concentration = 2 × MIC), or 3 µl solvent blank; and incubated at 37°C with shaking. At time points 0, 10, 20, and 30 min after the addition of SalA, Rif, or solvent blank, rows of samples were transferred to a second 96-well plate, containing 100 µl ice-cold 10% trichloroacetic acid (TCA) in each well, and the second plate was incubated on ice. 1 hr after the final time point, TCA precipitates were collected by filtration onto glass-fiber filters (Filtermat A; PerkinElmer; pre-rinsed twice with 5% TCA), washed with 2 × ∼300 µl 5% TCA, washed with 3 × ∼300 µl water, and washed with 2 × ∼300 µl 10% ethanol, using a Packard FilterMate 196 Cell Harvester with Matrix Filter upper head assembly (PerkinElmer). Filters were dried under a heat lamp, wrapped in a single layer of plastic wrap, and exposed to a storage phosphor screen for 18–19 hr, and analyzed by storage-phosphor scanning (Typhoon; GE Healthcare).

For experiment [21], the target named is Thermus thermophilus RNAP (Thermus thermophilus, UniProt Q8RQE8+Q8RQE9). Briefly: biochemical.

In brackets after ≈: the same amount, converted by molar mass. Numbered stars: 1 amine (or outer) side, 2 acyl side, 3 side chain; on linkers, the order of the positions; unused ones are H or OH. Bridge positions count the residues as written; N and C are the ends. Square brackets hold non-standard residues; d marks the D form. Peptide text beside a SMILES is read from it. * marks the point of attachment. X5 = C[C@@H](Oc1ccc([C@H](N[*:1])C(=O)[*:2])cc1)[C@](O)(/C=C/C(=O)[*:3])CBr; X4 = CC(Oc1ccc(C(N[*:1])C(=O)[*:2])cc1)C(O)(C=CC(=O)[*:3])CCl; Pentanoyl(2R-Me,3R-OH,4-Me) = CC(C)[C@@H](O)[C@@H](C)C(=O)*; d(aIle) = CC[C@H](C)[C@@H](N)C(=O)O; d(aThr) = C[C@@H](O)[C@@H](N)C(=O)O; NMeF = CN[CH](Cc1ccccc1)C(=O)O; X3 = CC(C)C(O)C(C)C(=O)*

T1 sequence (P0A7Z4 whole entry): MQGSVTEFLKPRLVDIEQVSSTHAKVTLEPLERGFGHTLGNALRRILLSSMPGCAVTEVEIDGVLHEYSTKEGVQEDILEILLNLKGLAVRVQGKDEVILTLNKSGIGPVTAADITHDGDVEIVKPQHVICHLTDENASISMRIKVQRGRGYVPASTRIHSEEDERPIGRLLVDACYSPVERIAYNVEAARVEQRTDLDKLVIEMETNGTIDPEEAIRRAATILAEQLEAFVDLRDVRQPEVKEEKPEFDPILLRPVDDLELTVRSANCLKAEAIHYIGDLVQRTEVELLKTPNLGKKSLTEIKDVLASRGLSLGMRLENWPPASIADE
T1 sequence (P0A800 whole entry, further chain): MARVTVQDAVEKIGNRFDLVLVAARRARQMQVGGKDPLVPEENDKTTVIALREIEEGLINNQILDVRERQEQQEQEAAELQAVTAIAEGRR
T1 sequence (P0A8T7 whole entry): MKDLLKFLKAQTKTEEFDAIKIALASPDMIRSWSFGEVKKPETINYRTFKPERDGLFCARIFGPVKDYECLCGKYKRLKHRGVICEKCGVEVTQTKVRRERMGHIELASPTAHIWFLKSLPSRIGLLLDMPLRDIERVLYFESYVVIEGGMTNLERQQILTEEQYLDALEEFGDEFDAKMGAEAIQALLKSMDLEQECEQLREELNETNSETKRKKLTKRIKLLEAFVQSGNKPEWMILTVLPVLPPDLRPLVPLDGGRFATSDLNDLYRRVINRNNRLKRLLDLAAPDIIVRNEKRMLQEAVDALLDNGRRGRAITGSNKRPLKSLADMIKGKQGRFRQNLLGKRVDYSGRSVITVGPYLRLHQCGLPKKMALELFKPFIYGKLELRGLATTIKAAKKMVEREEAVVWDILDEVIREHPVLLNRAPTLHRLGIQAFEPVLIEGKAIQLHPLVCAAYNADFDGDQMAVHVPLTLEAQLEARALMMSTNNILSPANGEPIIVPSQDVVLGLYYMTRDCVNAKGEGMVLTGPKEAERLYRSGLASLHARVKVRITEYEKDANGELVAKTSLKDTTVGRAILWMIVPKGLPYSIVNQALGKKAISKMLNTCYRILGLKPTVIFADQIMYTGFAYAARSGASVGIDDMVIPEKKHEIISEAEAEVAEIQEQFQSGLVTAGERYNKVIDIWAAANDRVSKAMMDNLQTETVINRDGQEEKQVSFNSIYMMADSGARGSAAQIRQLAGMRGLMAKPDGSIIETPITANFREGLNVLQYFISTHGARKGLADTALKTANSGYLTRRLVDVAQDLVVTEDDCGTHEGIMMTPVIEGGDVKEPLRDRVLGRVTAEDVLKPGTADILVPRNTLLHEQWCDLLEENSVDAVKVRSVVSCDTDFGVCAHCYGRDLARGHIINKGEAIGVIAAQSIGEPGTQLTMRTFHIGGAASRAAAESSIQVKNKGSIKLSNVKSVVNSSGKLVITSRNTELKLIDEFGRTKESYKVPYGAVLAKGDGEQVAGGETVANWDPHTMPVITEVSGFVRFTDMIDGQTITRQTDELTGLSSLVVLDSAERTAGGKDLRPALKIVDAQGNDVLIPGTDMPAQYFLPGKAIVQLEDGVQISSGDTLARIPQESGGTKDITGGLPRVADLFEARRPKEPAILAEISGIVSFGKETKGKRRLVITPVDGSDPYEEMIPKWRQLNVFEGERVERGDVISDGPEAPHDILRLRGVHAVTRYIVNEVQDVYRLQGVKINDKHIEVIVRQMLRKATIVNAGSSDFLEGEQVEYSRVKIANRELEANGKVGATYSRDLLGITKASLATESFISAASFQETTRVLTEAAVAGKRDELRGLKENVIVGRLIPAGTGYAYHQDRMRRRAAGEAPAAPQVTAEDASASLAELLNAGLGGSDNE
T1 sequence (P00579 whole entry, further chain): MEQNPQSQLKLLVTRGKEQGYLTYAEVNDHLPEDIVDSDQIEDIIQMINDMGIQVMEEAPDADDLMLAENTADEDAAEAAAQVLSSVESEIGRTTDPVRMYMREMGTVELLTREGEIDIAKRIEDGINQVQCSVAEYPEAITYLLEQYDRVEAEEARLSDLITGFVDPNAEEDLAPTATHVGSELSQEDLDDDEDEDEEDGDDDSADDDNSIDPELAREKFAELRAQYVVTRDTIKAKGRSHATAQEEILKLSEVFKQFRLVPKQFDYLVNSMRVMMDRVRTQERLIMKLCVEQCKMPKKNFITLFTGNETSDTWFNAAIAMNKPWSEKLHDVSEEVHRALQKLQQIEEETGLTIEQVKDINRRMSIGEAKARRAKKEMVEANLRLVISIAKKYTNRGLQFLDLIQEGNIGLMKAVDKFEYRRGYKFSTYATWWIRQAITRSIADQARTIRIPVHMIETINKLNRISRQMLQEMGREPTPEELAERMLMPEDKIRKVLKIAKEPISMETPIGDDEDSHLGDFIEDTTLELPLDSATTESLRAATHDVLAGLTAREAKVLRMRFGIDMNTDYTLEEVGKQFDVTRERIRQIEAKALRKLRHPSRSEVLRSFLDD
T1 sequence (P0A8V2 whole entry): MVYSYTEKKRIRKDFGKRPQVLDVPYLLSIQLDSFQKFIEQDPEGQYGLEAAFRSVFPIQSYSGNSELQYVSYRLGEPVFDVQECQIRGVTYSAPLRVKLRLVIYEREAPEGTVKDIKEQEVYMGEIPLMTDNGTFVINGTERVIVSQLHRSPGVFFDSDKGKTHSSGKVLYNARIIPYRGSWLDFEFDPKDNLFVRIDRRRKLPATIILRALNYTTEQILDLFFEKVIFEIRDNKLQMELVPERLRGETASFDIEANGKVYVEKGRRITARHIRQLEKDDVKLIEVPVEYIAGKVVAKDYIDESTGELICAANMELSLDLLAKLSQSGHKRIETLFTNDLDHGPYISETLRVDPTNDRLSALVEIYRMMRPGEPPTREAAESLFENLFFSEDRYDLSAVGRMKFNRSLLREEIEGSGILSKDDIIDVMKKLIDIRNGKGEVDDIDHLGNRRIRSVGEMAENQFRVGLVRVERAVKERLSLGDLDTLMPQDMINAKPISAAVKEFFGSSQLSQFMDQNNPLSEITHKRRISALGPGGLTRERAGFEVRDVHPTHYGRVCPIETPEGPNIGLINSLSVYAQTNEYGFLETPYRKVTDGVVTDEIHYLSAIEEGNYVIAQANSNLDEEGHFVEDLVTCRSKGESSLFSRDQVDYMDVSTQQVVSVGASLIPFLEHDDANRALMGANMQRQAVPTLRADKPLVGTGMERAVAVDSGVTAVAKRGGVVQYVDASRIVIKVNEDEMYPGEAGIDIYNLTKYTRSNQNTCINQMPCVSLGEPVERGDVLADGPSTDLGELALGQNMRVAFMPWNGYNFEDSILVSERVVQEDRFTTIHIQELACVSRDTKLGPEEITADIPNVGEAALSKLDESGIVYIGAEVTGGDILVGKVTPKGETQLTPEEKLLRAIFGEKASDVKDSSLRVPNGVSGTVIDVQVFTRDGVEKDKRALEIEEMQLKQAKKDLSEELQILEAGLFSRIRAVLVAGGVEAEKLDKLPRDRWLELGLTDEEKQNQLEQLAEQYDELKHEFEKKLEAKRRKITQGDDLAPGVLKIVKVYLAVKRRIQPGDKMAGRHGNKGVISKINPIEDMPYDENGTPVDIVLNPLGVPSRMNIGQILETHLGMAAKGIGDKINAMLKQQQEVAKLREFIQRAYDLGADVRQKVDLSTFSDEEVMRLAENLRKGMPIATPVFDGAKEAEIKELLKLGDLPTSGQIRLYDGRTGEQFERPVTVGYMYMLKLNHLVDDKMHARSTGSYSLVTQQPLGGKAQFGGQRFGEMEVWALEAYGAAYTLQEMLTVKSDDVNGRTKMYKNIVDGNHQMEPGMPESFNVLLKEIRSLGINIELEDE

myxopyronin: the MICwild-type in experiment [1] and in [2] was 0.20 µg/mL throughout. The “resistance rate (per generation)” value in the experiment on E. coli D21f2tolC [3] is on record as 3 × 10^−10 per generation. The “effect on nucleotide addition in transcription elongation” value (from here on “effect … in transcription elongation”) at E. coli RNAP holoenzyme [4] is recorded as “do not inhibit transcription elongation”.
A word on the IC50: it is the concentration needed to halve the response being measured. A high value points to lower potency. With `CCC(C)C1NC(=O)C(NC(=O)C(C)C(O)C(C)C)C(C)OC(=O)C2COC(=O)CNC(=O)C=CC(O)(CCl)C(C)Oc3ccc(cc3)C(NC1=O)C(=O)N(C)C(Cc1ccccc1)C(=O)NC(C(C)O)C(=O)N2` (stereo not shown) [SalB, salinamide B] (X3-TI[X4][NMeF]TS; ester 1-C; linker 3-6 via G; configuration not given here), the MIC in experiment [5] was above 50 µg/mL; in [7], 25 µg/mL (≈ 23.7 µM); in the experiment with Yersinia pestis CO92, above 50 µg/mL; in the experiment on Burkholderia mallei CHN7, 50 µg/mL (≈ 47.3 µM); in [9] it was above 50 µg/mL. For the same compound, the IC50 was 800 nM in experiment [6] and 500 nM on Escherichia coli RNAP. Besides, the “resistance level, all mutants” value in experiment [8] is recorded as at least 16 fold. Moreover, the MICwild-type in experiment [10] is 0.20 µg/mL.
Take lipiarmycin [Lpm]: the MICwild-type in experiment [1] and in experiment [2] was 1.56 µg/mL throughout. The “effect … in transcription elongation” value on E. coli RNAP holoenzyme [4] is given as “do not inhibit transcription elongation”.
Turning to `CC[C@H](C)[C@H]1NC(=O)[C@@H](NC(=O)[C@H](C)[C@H](O)C(C)C)[C@@H](C)OC(=O)[C@@H]2COC(=O)CNC(=O)/C=C/[C@](O)(CBr)[C@@H](C)Oc3ccc(cc3)[C@H](NC1=O)C(=O)N(C)[C@@H](Cc1ccccc1)C(=O)N[C@H]([C@@H](C)O)C(=O)N2` [Sal-Br] ({Pentanoyl(2R-Me,3R-OH,4-Me)}-T[d(aIle)][X5][NMeF][d(aThr)]S; ester 1-C; linker 3-6 via G), the half-maximal inhibitory concentration (IC50) in experiment [6] turned out to be 700 nM; on Escherichia coli RNAP, 900 nM. The MIC was 25 µg/mL (≈ 22.7 µM) in [7], 6.25 µg/mL (≈ 5.68 µM) in [11] and 3.13 µg/mL (≈ 2.84 µM) in [12].
For orientation: Ki means a measure of affinity in units of concentration, obtained from inhibition or displacement. The low end stands for a stronger hold on the target, the high end for a looser hold on the target. Consider `CC[C@@H](C)[C@@H]1NC(=O)[C@H](NC(=O)[C@@H](C)[C@@H](O)C(C)C)[C@H](C)OC(=O)[C@H]2COC(=O)CNC(=O)/C=C/[C@@]3(CO3)[C@H](C)Oc3ccc(cc3)[C@H](NC1=O)C(=O)N(C)[C@H](Cc1ccccc1)C(=O)N[C@@H]([C@H](C)O)C(=O)N2` [SalA, Salinamide A], for which the MIC in experiment [13] worked out at 50 µg/mL (≈ 49 µM); in [5] it was 25 µg/mL (≈ 24.5 µM); in experiment [7] it was 25 µg/mL (≈ 24.5 µM); in [11], 6.25 µg/mL (≈ 6.13 µM); in the experiment on Yersinia pestis CO92, 50 µg/mL (≈ 49 µM); in the experiment with Burkholderia mallei CHN7 it was 25 µg/mL (≈ 24.5 µM). Also, the figures for the MIC in [9] and in experiment [12] were 50 µg/mL (≈ 49 µM) and 1.56 µg/mL (≈ 1.53 µM), respectively. The “effect on nucleotide addition in primer-dependent transcription initiation” value on E. coli RNAP holoenzyme [14] was “inhibits all nucleotide-addition steps”. Moreover, the MICwild-type in [1], in experiment [2] and in [10] was 0.049 µg/mL throughout. For the same compound, the figures for the IC50 (in [6]; against Escherichia coli RNAP; in experiment [21]) were 200 nM, 200 nM and above 100000 nM, respectively. This compound also displayed a Ki at E. coli RNAP holoenzyme [15] of 200 nM. In addition, on E. coli RNAP holoenzyme [15], the mode of inhibition entry is listed as “noncompetitive”. Further, in experiment [8], the “resistance level, all mutants” value is recorded as at least 16 fold. The “resistance level, nine high-level mutants” value in [8] ({}) is listed as at least 128 fold. The “frequency of spontaneous mutation to Sal-resistance” value in the experiment with E. coli D21f2tolC [16] was ~1 × 10^−9. The “effect on nucleotide addition in de novo transcription initiation” value at E. coli RNAP holoenzyme [17] is recorded as “inhibits all nucleotide-addition steps”. Moreover, the “resistance rate (per generation)” value with E. coli D21f2tolC [3] (listed as Sal) is reported as 2 × 10^−9 per generation. Moreover, the “requirement of RNAP trigger loop for inhibition” value in experiment [18] is given as “does not require the RNAP active-center subregion referred to as the ‘trigger loop’”. Moreover, in the experiment with E. coli RNAP core enzyme, the effect on pyrophosphorolysis entry is “inhibits not only the forward reaction of nucleotide addition but also the reverse reaction, pyrophosphorolysis”. In addition, the “effect … in transcription elongation” value on E. coli RNAP holoenzyme [4] is “inhibits nucleotide addition in transcription elongation”. In addition, the “effect on formation of RNAP-promoter open complex (RPo)” value on E. coli RNAP holoenzyme [19] was “does not inhibit formation of a heparin-resistant RNAP-promoter open complex”. The “effect on DNA synthesis ([14C]-thymidine incorporation)” value in the experiment on E. coli D21f2tolC [20] is “no effect on DNA synthesis”. In addition, the “effect on RNA synthesis ([14C]-uracil incorporation)” value with E. coli D21f2tolC [20] is “inhibits RNA synthesis at the first time point following addition”. For the same compound, the “effect on protein synthesis ([14C]-amino acids incorporation)” value in the experiment with E. coli D21f2tolC [20] is “inhibits protein synthesis at later time points”.
Turning to `CO[C@H]1/C=C/O[C@@]2(C)Oc3c(C)c(O)c4c(O)c(c(/C=N/N5CCN(C)CC5)c(O)c4c3C2=O)NC(=O)/C(C)=C\C=C\[C@H](C)[C@H](O)[C@@H](C)[C@@H](O)[C@@H](C)[C@H](OC(C)=O)[C@@H]1C` [Rif, rifampin], the “effect on nucleotide addition in primer-dependent transcription initiation” value on E. coli RNAP holoenzyme [14] is given as “does not inhibit the first nucleotide-addition step”. The MICwild-type in [1] and in [2] was 0.20 µg/mL each time. Besides, the “effect … in transcription elongation” value on E. coli RNAP holoenzyme [4] is on record as “do not inhibit transcription elongation”.
For `ONC(=Nc1ccccc1)c1cccc(C(F)(F)F)c1` [CBR703], the MICwild-type in experiment [1] and in experiment [2] was 6.25 µg/mL in each case.
Turning to `CNC(=O)[C@@H](C)[C@H]1C(=O)/C(=C(O)/C=C/C(C)=C/[C@@H](C)[C@H]2O[C@@]3(C)O[C@H](C=C[C@@]34CO4)[C@@H]2C)C(=O)N1[C@@H]1CC[C@H](O)[C@H](C)O1` [Stl, streptolydigin], the MICwild-type in experiment [1] turned out to be 1.56 µg/mL; in experiment [2], 3.13 µg/mL.
